Test results: the supplement of paper PMC9663587

What was measured:
Assay in all cases: area over the GR curve, 72 h; higher = more effect;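 further: Dye Drop or Deep Dye Drop imaging of viable cells in 384-well plates (Hoechst nuclei, LIVE/DEAD dye), nine half-log doses, GR normalized to DMSO controls and time-zero plates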
MDAMB361 = system: MDAMB361
ZR751 = system: ZR751
SUM185PE = system: SUM185PE
AU565 = system: AU565
MCF10A = system: MCF10A
MDAMB175VII = system: MDAMB175VII
CAL51 = system: CAL51
CAL851 = system: CAL851
BT474 = system: BT474
UACC893 = system: UACC893
EVSAT = system: EVSAT
SUM44PE = system: SUM44PE
MGH312 = system: MGH312
MCF12A = system: MCF12A
MDAMB231 = system: MDAMB231

Row | SMILES | area over the GR curve (MDAMB361) [GR] | area over the GR curve (ZR751) [GR] | area over the GR curve (SUM185PE) [GR] | area over the GR curve (AU565) [GR] | area over the GR curve (MCF10A) [GR] | area over the GR curve (MDAMB175VII) [GR] | area over the GR curve (CAL51) [GR] | area over the GR curve (CAL851) [GR] | area over the GR curve (BT474) [GR] | area over the GR curve (UACC893) [GR] | area over the GR curve (EVSAT) [GR] | area over the GR curve (SUM44PE) [GR] | area over the GR curve (MGH312) [GR] | area over the GR curve (MCF12A) [GR] | area over the GR curve (MDAMB231) [GR]
1 | COc1cccc2c1C(=O)c1c(O)c3c(c(O)c1C2=O)C[C@@](O)(C(=O)CO)C[C@@H]3O[C@H]1C[C@H](N)[C@H](O)[C@H](C)O1 [Doxorubicin] (max 3.162 µM) | 0.912 | 0.497 | 0.0881 | 0.604 | 0.655 | 0.908 | 0.795 | 0.848 | 0.578 | 0.611 | 0.642 | 0.629 | 1.07 | 0.601 | 0.818
2 | CO[C@H]1C[C@@H]2CC[C@@H](C)[C@@](O)(O2)C(=O)C(=O)N2CCCC[C@H]2C(=O)O[C@H]([C@H](C)C[C@@H]2CC[C@@H](OCCO)[C@H](OC)C2)CC(=O)[C@H](C)/C=C(\C)[C@@H](O)[C@@H](OC)C(=O)[C@H](C)C[C@H](C)/C=C/C=C/C=C/1C [Everolimus] (max 10 µM) | 0.85 | 0.669 | 0.2 | 0.553 | 0.113 | 1.14 | 0.432 | 0.576 | 0.898 | 0.714 | 0.551 | 0.734 | 0.798 | 0.273 | 0.225
3 | CCC(=O)Nc1ccc(C(=O)Nc2ccc(Nc3ncc4c(n3)N(C)c3ccc(C)cc3C(=O)N4C)cc2)cc1 [FMF-03-145-1] | 0.323 | 0.391 | 0.384 | 0.501 | 1.05 | 0.919 | 0.394 | 0.626 | 0.951 | 0.869 | 1 | 1.15 | 1.28 | 0.345 | 0.947
4 | COc1cc(N2CCN(C)CC2)ccc1Nc1ncc2c(n1)N(C)c1ccccc1C(=O)N2CC(F)(F)F [FMF-03-146-1] | 0.126 | 0.0552 | 0.0495 | 0.0771 | -0.0018 | 0.0733 | 0.0396 | 0.0805 | 0.0118 | -0.0085 | -0.0034 | 0.016 | 0.025 | 0.0258 | 0.0225
5 | CN1CC[C@H](c2c(O)cc(O)c3c(=O)cc(-c4ccccc4Cl)oc23)[C@H](O)C1 [Flavopiridol] (max 1 µM) | 0.397 | 0.152 | 0.308 | 0.368 | 0.277 | 0.413 | 0.242 | 0.3 | 0.371 | 0.321 | 0.157 | 0.406 | 0.452 | 0.167 | 0.286
6 | CC(C)n1nc(-c2ccc3oc(N)nc3c2)c2c(N)ncnc21 [INK128/MLN0128] (max 3.162 µM) | 1.1 | 0.679 | 0.609 | 0.791 | 0.467 | 1.17 | 0.553 | 0.626 | 0.834 | 0.745 | 0.691 | 0.781 | 1.22 | 0.495 | 0.486
7 | CC(C)NC[C@@H](C(=O)N1CCN(c2ncnc3c2[C@H](C)C[C@H]3O)CC1)c1ccc(Cl)cc1 [Ipatasertib/GDC0068] (max 10 µM) | 0.453 | 0.0518 | 0.155 | 0.147 | 0.06 | 0.456 | 0.224 | 0.166 | 0.344 | 0.529 | 0.463 | 0.412 | 0.933 | 0.0679 | 0.0065
8 | CN(C)C(=O)c1cc2cnc(Nc3ccc(N4CCNCC4)cn3)nc2n1C1CCCC1 [LEE011/Ribociclib] (max 10 µM) | 0.784 | 0.258 | 0.101 | 0.403 | 0.235 | 0.8 | 0.299 | 0.0857 | 0.412 | 0.53 | 0.12 | 0.357 | -0.0019 | 0.0926 | 0.365
9 | CCNC(=O)c1noc(-c2cc(C(C)C)c(O)cc2O)c1-c1ccc(CN2CCOCC2)cc1 [Luminespib/NVP-AUY922] (max 1 µM) | 0.978 | 0.362 | 0.673 | 0.689 | 0.613 | 0.774 | 0.704 | 0.75 | 0.781 | 1.07 | 0.68 | 0.804 | 0.962 | 0.619 | 0.645
10 | CCOc1cc2ncc(C#N)c(Nc3ccc(OCc4ccccn4)c(Cl)c3)c2cc1NC(=O)/C=C/CN(C)C [Neratinib/HKI272] (max 3.162 µM) | 0.425 | 0.0964 | 0.255 | 1.15 | 0.344 | 1.45 | 0.091 | 0.538 | 1.43 | 1.17 | 0.0683 | 0.568 | 0.373 | 0.194 | 0.105
11 | O=C(c1cc(Cc2n[nH]c(=O)c3ccccc23)ccc1F)N1CCN(C(=O)C2CC2)CC1 [Olaparib/AZD2281] (max 10 µM) | 0.0967 | 0.0567 | -0.0156 | 0.0653 | 0.0408 | 0.0102 | 0.116 | 0.135 | 0.0431 | 0.0342 | 0.0599 | -0.0366 | 0.0149 | 0.0468 | 0.0581
12 | CC(=O)O[C@H]1C(=O)[C@@]2(C)[C@H]([C@H](OC(=O)c3ccccc3)[C@]3(O)C[C@H](OC(=O)[C@H](O)[C@@H](NC(=O)c4ccccc4)c4ccccc4)C(C)=C1C3(C)C)[C@]1(OC(C)=O)CO[C@@H]1C[C@@H]2O [Paclitaxel] (max 1 µM) | 0.974 | 0.511 | 0.479 | 0.994 | 0.702 | 0.837 | 0.669 | 0.793 | 0.873 | 0.905 | 0.844 | 0.953 | 0.973 | 0.586 | 0.702
13 | CS(=O)(=O)N1CCN(Cc2cc3nc(-c4cccc5[nH]ncc45)nc(N4CCOCC4)c3s2)CC1 [Pictilisib/GDC0941] (max 10 µM) | 0.716 | 0.324 | 0.458 | 0.646 | 0.262 | 0.417 | 0.19 | 0.36 | 0.588 | 0.323 | 0.387 | 0.392 | 0.771 | 0.089 | 0.206
